One assay relates to HIV. The assay can be described thus: HIV infectivity assay, luciferase activity in CEMX174 cells with SIV LTR-driven luciferase gene. The assay is classed as cell-based. The conditions noted are these: for inhibition of HIV infection (in words): lymphocytes incubated 24 hours with drug, washed, exposed to HIV for 24 hours, luciferase activity (FIG. 2). As to the method:
CEMX174 cells transfected with a luciferase gene driven by the Simian Immunodeficiency Virus (SIV) LTR are used in infectivity assays. Cells are then treated with sigma-2 receptor agonists at various concentrations followed by incubation in the presence or absence (control) of HIV. Luciferase activity quantifies HIV replication.
This inhibition of HIV infection occurs at doses within the range of concentrations of CB-184 and haldol that produce reductions in membrane sphingomyelin, as shown above in FIG. 1. In these experiments, lymphocytes transfected with a luciferease gene driven by the Simian Immunodeficiency virus (SIV)LTR were incubated for 24 hours in the presence of the indicated dose of sigma-2 receptor agonist. The drugs were then removed, cells were washed and exposed to HIV for 24 hours. Cells were then lysed and luciferase activity quantified. Luciferase activity indicates the level of infectivity of the HIV virions. All of the compounds evaluated with sigma-2 agonist activity inhibited HIV infection at concentrations that were non-toxic to lymphocytes.

The subject of a further assay is H9 lymphocytes. The assay can be described thus: Membrane sphingomyelin levels in [3H]palmitic acid-labeled H9 lymphocytes. The format is cell-based. As to conditions: H9 cells, 24 hours incubation (FIG. 1). The method, then:
Methods: Membrane sphingomyelin is metabolically labeled in H9 lymphocytes by incubating the cells with [^3H] palmitic acid in supplemented RPMI media for 48 h. Labeled media is removed and cells are incubated in the presence or absence of various concentrations of the sigma-2 receptor agonists CB-184 or haldol (haloperidol) for 24 hours. Total lipids are extracted and the dried organic layer is chromatographed on Silica G-60 plates. Sphingomyelin spots are scraped and quantified by liquid scintillation counting.

These results are taken from patent US20060004036A1, “Sigma-2 receptor agonists and their use in the treatment of HIV infection” (The United States of America, per Secy. DHHS, NIH, priority 2003, published 2006).

Regarding `CN(CCc1ccc(Cl)c(Cl)c1)[C@H]1CCCC[C@H]1N1CCCC1` (relative stereo) [BD737, 1S,2R-(+)-cis-N-[2-(3,4-dichlorophenyl)ethyl]-N-methyl-2-(1-pyrrolidinyl)-cyclohexylamine], the “inhibition of HIV infection (in words)” value in the assay on HIV is recorded as “dose-dependent inhibition”.

Turning to `c1ccc(CCN2CCCCC2)cc1` [AC-927, N-phenethylpiperidine, reference compound], the “effect of the antagonist on the ability of CB-184 to inhibit HIV infection of lymphocytes (in words)” value with HIV (with CB-184 at various doses and different HIV viral titres (FIG. 3, 4, 5)) is on record as “reversed”. For the compound `CN1CC[C@]2(c3cccc(O)c3)CC(=O)/C(=C/c3ccccc3)[C@H]1C2` [CB-64D], the “inhibition of HIV infection (in words)” value in the assay with HIV is “dose-dependent inhibition”. The same measure, in the same setting: the entry for `O=C(CCCN1CCC(O)(c2ccc(Cl)cc2)CC1)c1ccc(F)cc1` [haldol, haloperidol, reference compound] is “dose-dependent inhibition”. `CN1CC[C@]2(c3cccc(O)c3)CC(=O)/C(=C/c3ccc(Cl)c(Cl)c3)[C@H]1C2` [CB-184, (+)-1R,5R-E-8-(3,4-dichlorobenzylidene)-5-(3-hydroxyphenyl)-2-methylmorphan-7-one]: the “reduction of control levels of membrane sphingomyelin” value is recorded as “about 39%” in the assay with H9 lymphocytes (0.3 μM) and ~45% in the assay with H9 lymphocytes (1 μM). Besides, the “inhibition of HIV infection (in words)” value in the assay with HIV is on record as “dose-dependent inhibition”.
